We go through three molecules from patent publication US20250195357A1, “CLEAR SCALP COMPOSITION WITH DISCRETE PARTICLES” (The Procter & Gamble Company, priority 2022, published 2025).

Each structure is given as a SMILES string.

Data set [1] can be described thus: Solubility of scalp actives. Format: physicochemical.
For data set [2] the following is noted: cited from earlier work.

`O=C(O)c1ccccc1O` [salicylic acid]: the Water solubility result in data set [1] (at pH of 4.8 and above) is on record as “water soluble”.

As for `Cc1cc(CC(C)CC(C)(C)C)n(O)c(=O)c1.NCCO` (stereo not shown) [piroctone olamine], the Solubility in water entry in data set [2] is recorded as “very limited solubility”. Further, in data set [1], the Oil solubility result is “oil soluble”.

In the case of `CC1CCC(C(C)C)C(O)C1` (stereo not shown) [menthol], the Oil solubility result in data set [1] is listed as “oil soluble”.
